Columns and labels:
[1] = molecular target: Tyrosine-protein kinase Fyn (Homo sapiens, UniProt P06241); assay: biochemical; format: cell-based, Insect cells; conditions: insect cells;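 note: enzymatic inhibition of Fyn kinase activity measured with Poly(Glu:Tyr) as the phosphorylation substrate; in other assays of this panel Not Active means under 50% inhibition at 10 µM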
[2] = DRUGMATRIX: Calcium Channel Type L, Dihydropyridine radioligand binding (ligand: [3H] Nitrendipine); format: cell membranes, Rattus norvegicus, Wistar, Cerebral cortex, Membrane; conditions: Not Active = under 50% inhibition at 10 µM
[3] = DRUGMATRIX: ATPase, Na+/K+ enzyme inhibition (substrate: ATP); format: tissue-based, Sus scrofa, Heart; conditions: Not Active = under 50% inhibition at 10 µM
[4] = molecular target: Protein phosphatase 3 catalytic subunit alpha (Homo sapiens, UniProt Q08209); set-up: species or system Escherichia coli;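 note: inhibition of calcineurin (PP2B) enzyme activity, measured with DiFMUP as the substrate; in other assays of this panel Not Active means under 50% inhibition at 10 µM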
Substance-K receptor = molecular target: T1, Substance-K receptor (Homo sapiens, UniProt P21452); format: cell membranes, CHO, Membrane; conditions: cho; note: in other assays of this panel Not Active means under 50% inhibition at 10 µM
T1 sequence (P21452 whole entry): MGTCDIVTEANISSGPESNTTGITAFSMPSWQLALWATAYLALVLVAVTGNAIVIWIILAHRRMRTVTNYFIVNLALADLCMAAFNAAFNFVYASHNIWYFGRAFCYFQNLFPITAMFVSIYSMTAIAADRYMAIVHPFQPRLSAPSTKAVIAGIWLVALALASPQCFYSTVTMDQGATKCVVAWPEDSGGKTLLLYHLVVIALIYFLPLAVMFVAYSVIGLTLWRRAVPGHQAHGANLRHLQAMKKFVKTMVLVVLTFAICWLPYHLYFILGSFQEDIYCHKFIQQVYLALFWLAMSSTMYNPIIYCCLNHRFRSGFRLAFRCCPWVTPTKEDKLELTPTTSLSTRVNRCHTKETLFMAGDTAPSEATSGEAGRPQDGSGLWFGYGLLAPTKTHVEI

[5] = DRUGMATRIX: Imidazoline I2, Central radioligand binding (ligand: [3H] Idazoxan); format: cell membranes, Rattus norvegicus, Wistar, Cerebral cortex, Membrane; conditions: Not Active = under 50% inhibition at 10 µM

Tyrosine-protein kinase Fyn, sequence (P06241 whole entry): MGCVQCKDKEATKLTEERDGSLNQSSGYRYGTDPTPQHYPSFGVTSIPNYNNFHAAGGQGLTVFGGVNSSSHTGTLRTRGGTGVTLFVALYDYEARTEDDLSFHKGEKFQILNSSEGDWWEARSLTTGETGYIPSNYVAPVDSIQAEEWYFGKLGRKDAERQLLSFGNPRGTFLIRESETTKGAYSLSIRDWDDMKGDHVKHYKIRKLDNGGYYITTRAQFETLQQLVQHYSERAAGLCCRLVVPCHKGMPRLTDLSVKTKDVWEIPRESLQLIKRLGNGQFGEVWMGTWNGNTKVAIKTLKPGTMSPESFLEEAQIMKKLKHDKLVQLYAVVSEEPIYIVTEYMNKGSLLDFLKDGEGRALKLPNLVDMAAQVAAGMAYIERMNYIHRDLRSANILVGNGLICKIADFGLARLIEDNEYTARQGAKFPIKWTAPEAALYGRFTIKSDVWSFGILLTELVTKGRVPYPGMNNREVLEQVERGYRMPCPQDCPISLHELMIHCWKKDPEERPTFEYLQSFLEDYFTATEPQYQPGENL

CC(=O)O[C@H]1C[C@@H]2CC[C@@H]3[C@H](CC[C@@]4(C)[C@H]3C[C@H]([N+]3(C)CCCCC3)[C@@H]4OC(C)=O)[C@@]2(C)C[C@@H]1N1CCCCC1.[Br-] [VECURONIUM BROMIDE]
Not Active: IC50 [1] | IC50 [2] | Ki [2] | IC50 [3] | Ki [3] | IC50 [4] | IC50 (Substance-K receptor) | IC50 [5] | Ki [5]

COc1cc(C(=O)NS(=O)(=O)c2ccccc2C)ccc1Cc1cn(C)c2ccc(NC(=O)OC3CCCC3)cc12 [ZAFIRLUKAST]
Not Active: IC50 [1] | IC50 [2] | Ki [2] | IC50 [3] | Ki [3] | IC50 [4] | IC50 (Substance-K receptor) | IC50 [5] | Ki [5]

Cc1cn([C@H]2C[C@H](N=[N+]=[N-])[C@@H](CO)O2)c(=O)[nH]c1=O [ZIDOVUDINE]
Not Active: IC50 [1] | IC50 [2] | Ki [2] | IC50 [3] | Ki [3] | IC50 [4] | IC50 (Substance-K receptor) | IC50 [5] | Ki [5]

STANNOUS FLUORIDE
Not Active: IC50 [1] | Ki [1] | IC50 [2] | Ki [2] | IC50 [3] | Ki [3] | IC50 [4] | Ki [4] | IC50 (Substance-K receptor) | Ki (Substance-K receptor) | IC50 [5] | Ki [5]

THIMEROSAL
Not Active: IC50 [1] | Ki [1] | IC50 [2] | Ki [2] | IC50 [3] | Ki [3] | IC50 [4] | Ki [4] | IC50 (Substance-K receptor) | Ki (Substance-K receptor) | IC50 [5] | Ki [5]

Source: ChEMBL document CHEMBL1909046, “DrugMatrix in vitro pharmacology data”
